# Test results reported in patent publication US20240317777A1, “NOVEL MACROCYCLIC AMINOPYRAZOLE COMPOUNDS AS CDK2 INHIBITORS” (Accutar Biotechnology Inc., priority 2023, published 2024).
# Like-named read-outs stand apart in the source and are kept apart here.
# Key:
# [1] = molecular target: CDK1-CYCLIN B (Homo sapiens, UniProt P06493); experiment: CDK protein kinase inhibition by ADP-Glo assay, CDK1-CYCLIN B; assay type: biochemical; details: for IC50: ADP-Glo, 1000 μM ATP, read-out: CDK1-CYCLINB, IC50; for CDK2 Fold selectivity, CDK1: CDK2 versus CDK1
# Method in brief: (§1)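 Enzyme reactions contain 1000 μM ATP and 5 mM MgCl2 in HEPES pH 7.5 with BSA, Triton X-100, DTT, orthovanadate and beta-glycerophosphate. They proceed at 22° C before ADP-Glo luminescent detection of ADP produced.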
# [2] = molecular target: CDK2-CYCLIN E1 (Homo sapiens, UniProt P24941); experiment: CDK protein kinase inhibition by ADP-Glo assay, CDK2-CYCLIN E1; assay type: biochemical; details: ADP-Glo, 1000 μM ATP, read-out: CDK2-CYCLINE, IC50
# Method in brief: as §1
# [3] = molecular target: CDK4-CYCLIN D1 (Homo sapiens, UniProt P11802); experiment: CDK protein kinase inhibition by ADP-Glo assay, CDK4-CYCLIN D1; assay type: biochemical; details: for IC50: ADP-Glo, 1000 μM ATP, read-out: CDK4-CYCLIND1, IC50; for CDK2 Fold selectivity, CDK4: CDK2 versus CDK4
# Method in brief: as §1
# [4] = molecular target: CDK6-CYCLIN D3 (Homo sapiens, UniProt Q00534); experiment: CDK protein kinase inhibition by ADP-Glo assay, CDK6-CYCLIN D3; assay type: biochemical; details: for IC50: ADP-Glo, 1000 μM ATP, read-out: CDK6-CYCLIND3, IC50; for CDK2 Fold selectivity, CDK6: CDK2 versus CDK6
# Method in brief: as §1
# [5] = molecular target: CDK9-CYCLIN T1 (Homo sapiens, UniProt P50750); experiment: CDK protein kinase inhibition by ADP-Glo assay, CDK9-CYCLIN T1; assay type: biochemical; details: for IC50: ADP-Glo, 1000 μM ATP, read-out: CDK9-CYCLINT1, IC50; for CDK2 Fold selectivity, CDK9: CDK2 versus CDK9
# Method in brief: as §1
# [6] = test system: Phospho-Rb (Ser807/811) in OVCAR3 cells; experiment: Phospho-Rb expression inhibition in OVCAR3 cells quantified by In Cell Western; assay type: cell-based; details: Homo sapiens, OVCAR-3, 24 hours, read-out: OVCAR-3 pRb IC50
# Method in brief: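 In-cell western: after 24 h compound exposure at 37° C, fixed OVCAR3 cells co-stained for pRb Ser807/811 (800 nm channel) and total Rb (680 nm channel), imaged by LI-COR Odyssey.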
# [7] = test system: CCNE1-amplified OVCAR3 cells; experiment: Cell growth inhibition of CCNE1-amplified OVCAR3 cells (CellTiter-Glo); assay type: cell-based; details: Homo sapiens, OVCAR-3, 144 h, 6 days
# Method in brief: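 Growth read-out was CellTiter-Glo luminescence, taken after 10 min at room temperature at the end of a 6-day compound exposure at 37 °C. Compounds were diluted from DMSO stocks across various concentrations.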
# [8] = test system: CCNE1-normal SKOV3 cells; experiment: Cell growth inhibition of CCNE1-normal SKOV3 cells (CellTiter-Glo); assay type: cell-based; details: Homo sapiens, SK-OV-3, 144 h, 6 days
# Method in brief: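 Growth was measured by CellTiter-Glo luminescence after 6 days' compound exposure at 37 °C. Cells were plated one day before dosing at 1000 per well in medium with 10% FBS, and compounds were diluted from DMSO stocks.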
# Chain of CDK1-CYCLIN B (P06493 whole entry): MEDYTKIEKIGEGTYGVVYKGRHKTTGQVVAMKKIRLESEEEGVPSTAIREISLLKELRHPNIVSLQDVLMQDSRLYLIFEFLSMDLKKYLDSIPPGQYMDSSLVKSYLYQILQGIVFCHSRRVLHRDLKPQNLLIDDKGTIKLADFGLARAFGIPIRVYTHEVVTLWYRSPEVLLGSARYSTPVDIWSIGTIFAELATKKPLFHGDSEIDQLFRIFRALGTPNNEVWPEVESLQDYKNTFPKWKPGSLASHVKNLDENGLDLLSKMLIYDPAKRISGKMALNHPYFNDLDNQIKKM
# Chain of CDK1-CYCLIN B (P14635 whole entry partner): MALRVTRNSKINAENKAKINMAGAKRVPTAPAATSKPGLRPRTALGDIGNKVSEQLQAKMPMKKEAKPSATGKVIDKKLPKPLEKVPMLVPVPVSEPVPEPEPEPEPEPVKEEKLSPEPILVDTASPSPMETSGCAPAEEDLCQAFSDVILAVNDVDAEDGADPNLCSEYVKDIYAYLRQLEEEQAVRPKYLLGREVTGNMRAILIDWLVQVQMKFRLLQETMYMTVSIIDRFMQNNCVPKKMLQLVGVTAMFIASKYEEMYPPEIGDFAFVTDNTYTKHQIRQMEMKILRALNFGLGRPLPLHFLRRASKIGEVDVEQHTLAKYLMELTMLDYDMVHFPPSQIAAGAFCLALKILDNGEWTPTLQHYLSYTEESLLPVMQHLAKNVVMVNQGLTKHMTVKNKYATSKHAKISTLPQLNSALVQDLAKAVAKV
# Chain of CDK4-CYCLIN D1 (P11802 whole entry): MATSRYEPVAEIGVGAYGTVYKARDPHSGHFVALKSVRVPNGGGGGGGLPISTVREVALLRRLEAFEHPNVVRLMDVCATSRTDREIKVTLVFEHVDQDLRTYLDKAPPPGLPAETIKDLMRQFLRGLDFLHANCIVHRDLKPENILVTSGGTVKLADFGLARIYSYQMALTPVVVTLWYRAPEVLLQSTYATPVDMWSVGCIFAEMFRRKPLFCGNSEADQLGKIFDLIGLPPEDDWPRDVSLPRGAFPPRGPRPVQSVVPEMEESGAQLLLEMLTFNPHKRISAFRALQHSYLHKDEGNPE
# Chain of CDK4-CYCLIN D1 (P24385 whole entry partner): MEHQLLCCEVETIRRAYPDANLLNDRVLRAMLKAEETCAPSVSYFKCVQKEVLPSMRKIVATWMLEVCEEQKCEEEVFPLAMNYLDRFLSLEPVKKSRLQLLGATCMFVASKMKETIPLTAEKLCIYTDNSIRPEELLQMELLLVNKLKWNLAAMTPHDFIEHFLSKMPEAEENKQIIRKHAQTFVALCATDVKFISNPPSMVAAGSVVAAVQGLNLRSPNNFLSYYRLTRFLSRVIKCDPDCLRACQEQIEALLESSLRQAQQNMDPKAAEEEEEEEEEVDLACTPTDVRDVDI
# Chain of CDK9-CYCLIN T1 (P50750 whole entry): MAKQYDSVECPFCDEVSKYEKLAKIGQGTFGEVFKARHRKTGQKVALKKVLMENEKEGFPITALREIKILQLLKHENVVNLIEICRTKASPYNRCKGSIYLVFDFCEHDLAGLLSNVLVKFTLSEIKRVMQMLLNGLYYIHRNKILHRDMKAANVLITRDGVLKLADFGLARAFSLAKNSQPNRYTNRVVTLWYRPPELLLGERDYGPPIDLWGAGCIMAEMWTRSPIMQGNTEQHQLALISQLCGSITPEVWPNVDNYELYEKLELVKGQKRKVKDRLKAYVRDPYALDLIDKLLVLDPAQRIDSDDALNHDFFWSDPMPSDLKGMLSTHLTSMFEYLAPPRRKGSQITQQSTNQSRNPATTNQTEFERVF
# Chain of CDK9-CYCLIN T1 (O60563 whole entry partner): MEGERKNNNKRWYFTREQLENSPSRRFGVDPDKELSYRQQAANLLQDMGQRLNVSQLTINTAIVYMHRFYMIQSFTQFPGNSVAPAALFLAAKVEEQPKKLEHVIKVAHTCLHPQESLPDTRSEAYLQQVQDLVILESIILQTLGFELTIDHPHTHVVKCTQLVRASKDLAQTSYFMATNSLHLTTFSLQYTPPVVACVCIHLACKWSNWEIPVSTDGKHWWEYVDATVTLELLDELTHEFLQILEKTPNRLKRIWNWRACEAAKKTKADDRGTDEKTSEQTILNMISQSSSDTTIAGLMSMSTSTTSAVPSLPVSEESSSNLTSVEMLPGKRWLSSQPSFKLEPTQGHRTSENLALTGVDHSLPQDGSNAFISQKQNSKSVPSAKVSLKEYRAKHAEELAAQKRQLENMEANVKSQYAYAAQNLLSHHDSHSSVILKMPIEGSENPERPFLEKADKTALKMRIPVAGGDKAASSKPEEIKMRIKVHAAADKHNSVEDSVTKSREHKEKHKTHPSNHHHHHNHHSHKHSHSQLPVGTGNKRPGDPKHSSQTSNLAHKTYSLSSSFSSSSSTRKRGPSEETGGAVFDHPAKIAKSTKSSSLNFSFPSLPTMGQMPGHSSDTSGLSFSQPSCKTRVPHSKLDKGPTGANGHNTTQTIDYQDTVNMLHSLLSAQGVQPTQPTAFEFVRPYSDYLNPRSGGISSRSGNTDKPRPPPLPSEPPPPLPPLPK
# Chain of CDK6-CYCLIN D3 (Q00534 whole entry): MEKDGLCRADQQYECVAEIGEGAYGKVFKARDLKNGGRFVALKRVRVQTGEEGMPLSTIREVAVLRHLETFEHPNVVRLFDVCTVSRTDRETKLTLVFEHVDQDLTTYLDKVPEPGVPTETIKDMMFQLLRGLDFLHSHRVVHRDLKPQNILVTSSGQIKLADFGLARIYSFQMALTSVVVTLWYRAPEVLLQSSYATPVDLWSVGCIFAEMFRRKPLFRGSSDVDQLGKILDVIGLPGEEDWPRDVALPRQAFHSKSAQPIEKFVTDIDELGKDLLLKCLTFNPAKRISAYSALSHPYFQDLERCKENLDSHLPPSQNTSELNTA
# Chain of CDK6-CYCLIN D3 (P30281 whole entry partner): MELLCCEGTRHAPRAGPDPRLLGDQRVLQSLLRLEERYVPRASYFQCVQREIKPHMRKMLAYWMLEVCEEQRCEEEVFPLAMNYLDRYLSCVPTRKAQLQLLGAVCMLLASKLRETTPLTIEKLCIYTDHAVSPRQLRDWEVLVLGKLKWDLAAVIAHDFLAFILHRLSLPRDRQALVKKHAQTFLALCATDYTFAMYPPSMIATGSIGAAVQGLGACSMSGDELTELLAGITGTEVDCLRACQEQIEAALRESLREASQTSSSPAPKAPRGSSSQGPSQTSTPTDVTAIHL
IC50 ([1]; Table 13),"CDK2 Fold selectivity, CDK1 ([1]; Table 14)",IC50 ([2]; Table 13),IC50 ([3]; Table 13),"CDK2 Fold selectivity, CDK4 ([3]; Table 14)",IC50 ([4]; Table 13),"CDK2 Fold selectivity, CDK6 ([4]; Table 14)",IC50 ([5]; Table 13),"CDK2 Fold selectivity, CDK9 ([5]; Table 14)",IC50 [6],IC50 [7],Structure (SMILES),IC50 [8],further results
10 to 50 nM,"D (D, >20 and ≤50)",≤ 10 nM,100 to 500 nM,"C (C, >50 and ≤100)",10 to 50 nM,"E (E, <20)",100 to 500 nM,"C (C, >50 and ≤100)",2 to 10 nM,10 to 50 nM,"C[C@H]1CCCOc2cncc(c2)Nc2cc(n[nH]2)[C@H]2CC[C@H](C2)OC(=O)N1 [Compound 119, (1^1S,1^3R,9S,Z)-9-methyl-2^1H-5,12-dioxa-3,10-diaza-4(3,5)-pyridina-2(3,5)-pyrazola-1(1,3)-cyclopentanacyclododecaphan-11-one]",> 1250 nM,
10 to 50 nM,"E (E, <20)",≤ 10 nM,50 to 100 nM,"C (C, >50 and ≤100)",10 to 50 nM,"E (E, <20)",50 to 100 nM,"C (C, >50 and ≤100)",2 to 10 nM,10 to 50 nM,"C[C@@H]1CCCOc2cncc(c2)Nc2cc(n[nH]2)[C@H]2CC[C@H](C2)OC(=O)N1 [Compound 120, (1^1S,1^3R,9R,Z)-9-methyl-2^1H-5,12-dioxa-3,10-diaza-4(3,5)-pyridina-2(3,5)-pyrazola-1(1,3)-cyclopentanacyclododecaphan-11-one]",> 1250 nM,
100 to 500 nM,"D (D, >20 and ≤50)",≤ 10 nM,> 500 nM,"B (B, >100 and ≤500)",100 to 500 nM,"C (C, >50 and ≤100)",100 to 500 nM,"B (B, >100 and ≤500)",10 to 50 nM,50 to 250 nM,"C[C@@H]1CCCNC(=O)O[C@@H]2CC[C@@H](C2)c2cc([nH]n2)Nc2cncc(c2)O1 [Compound 121, (1^1S,1^3R,6R,Z)-6-methyl-2^1H-5,12-dioxa-3,10-diaza-4(3,5)-pyridina-2(3,5)-pyrazola-1(1,3)-cyclopentanacyclododecaphan-11-one]",> 1250 nM,
,,,,,,,,,2 to 10 nM,10 to 50 nM,"C[C@H]1CC/C=C/c2cc(ccn2)Nc2cc(n[nH]2)[C@H]2CC[C@H](C2)OC(=O)N1 [Compound 125, (1^1S,1^3R,2^4Z,5E,9S)-9-methyl-2^1H-12-oxa-3,10-diaza-4(4,2)-pyridina-2(3,5)-pyrazola-1(1,3)-cyclopentanacyclododecaphan-5-en-11-one]",250 to 1250 nM,"IC50 ([1]; Table 19): 100 to 500 nM; CDK2 Fold selectivity, CDK1 ([1]; Table 20): E (E, <20); IC50 ([2]; Table 19): ≤ 10 nM; IC50 ([3]; Table 19): 100 to 500 nM; CDK2 Fold selectivity, CDK4 ([3]; Table 20): E (E, <20); IC50 ([4]; Table 19): 100 to 500 nM; CDK2 Fold selectivity, CDK6 ([4]; Table 20): D (D, >20 and ≤50); IC50 ([5]; Table 19): 100 to 500 nM; CDK2 Fold selectivity, CDK9 ([5]; Table 20): D (D, >20 and ≤50)"
